{"source": "ChEMBL document CHEMBL1250444", "about": "“Nitric oxide activates TRP channels by cysteine S-nitrosylation” (Nat Chem Biol, 2006)", "key": {"[1]": {"system": "BAEC", "experiment": "Inhibition of NO production in BAEC assessed as inhibition of Ca2+ influx at 10 mM", "format": "functional, cell-based", "conditions": "Bos taurus"}, "[2]": {"biological_target": "T1, Short transient receptor potential channel 5 (Homo sapiens) (UniProt Q9UL62)", "T1 sequence (whole entry)": "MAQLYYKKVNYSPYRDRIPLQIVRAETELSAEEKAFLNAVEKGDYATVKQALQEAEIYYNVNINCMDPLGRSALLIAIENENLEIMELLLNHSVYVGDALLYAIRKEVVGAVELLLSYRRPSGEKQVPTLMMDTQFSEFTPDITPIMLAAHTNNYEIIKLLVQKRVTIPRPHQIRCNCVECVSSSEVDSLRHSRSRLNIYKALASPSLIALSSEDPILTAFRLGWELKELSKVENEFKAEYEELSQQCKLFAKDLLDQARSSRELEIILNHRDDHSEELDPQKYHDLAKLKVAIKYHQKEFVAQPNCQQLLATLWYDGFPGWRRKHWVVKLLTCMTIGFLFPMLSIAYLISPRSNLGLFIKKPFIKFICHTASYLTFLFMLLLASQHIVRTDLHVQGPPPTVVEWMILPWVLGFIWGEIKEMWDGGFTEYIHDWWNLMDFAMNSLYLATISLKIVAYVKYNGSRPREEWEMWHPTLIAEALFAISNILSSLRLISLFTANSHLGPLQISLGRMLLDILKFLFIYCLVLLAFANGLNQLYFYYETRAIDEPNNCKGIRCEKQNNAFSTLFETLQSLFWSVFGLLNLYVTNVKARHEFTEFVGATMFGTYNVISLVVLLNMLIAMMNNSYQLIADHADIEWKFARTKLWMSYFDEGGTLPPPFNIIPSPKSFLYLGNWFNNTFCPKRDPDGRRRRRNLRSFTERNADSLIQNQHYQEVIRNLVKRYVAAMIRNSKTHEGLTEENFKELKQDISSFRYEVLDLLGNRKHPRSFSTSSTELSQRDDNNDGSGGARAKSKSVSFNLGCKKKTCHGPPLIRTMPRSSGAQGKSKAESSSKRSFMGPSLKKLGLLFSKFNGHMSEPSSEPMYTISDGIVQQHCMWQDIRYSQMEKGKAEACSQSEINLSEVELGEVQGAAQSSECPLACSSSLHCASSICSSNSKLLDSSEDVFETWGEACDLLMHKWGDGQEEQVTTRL", "experiment": "Induction of S-nitrosylation of TRPC5 in HEK cells assessed as inhibition of incorporation of DTNB-2Bio at 30 uM", "format": "cell-based", "conditions": "HEK293"}, "[3]": {"biological_target": "T1, Short transient receptor potential channel 5 (Homo sapiens)", "experiment": "Induction of S-nitrosylation of TRPC5 in HEK cells assessed as increase in Ca2+ level from extracellular space at 5 mM extracellular administration", "format": "cell-based", "conditions": "HEK293"}, "[4]": {"biological_target": "T1, Short transient receptor potential channel 5 (Homo sapiens)", "experiment": "Induction of S-nitrosylation of TRPC5 in HEK cells assessed as increase in Ca2+ level from extracellular space at 1 mM", "format": "cell-based", "conditions": "HEK293"}, "[5]": {"biological_target": "T1, Short transient receptor potential channel 5 (Homo sapiens)", "experiment": "Induction of S-nitrosylation of TRPC5 in HEK cells assessed as increase in Ca2+ level from extracellular space at 50 uM", "format": "cell-based", "conditions": "HEK293"}, "[6]": {"biological_target": "T1, Short transient receptor potential channel 5 (Homo sapiens)", "experiment": "Induction of S-nitrosylation of TRPC5 in HEK cells assessed as increase in Ca2+ level from extracellular space at 5 mM", "format": "cell-based", "conditions": "HEK293"}, "[7]": {"system": "BAEC", "experiment": "Inhibition of NO production in BAEC assessed as inhibition of Ca2+ influx at 1 mM", "format": "functional, cell-based", "conditions": "Bos taurus"}, "[8]": {"system": "BAEC", "experiment": "Inhibition of NO production in BAEC at 300 uM", "format": "functional, cell-based", "conditions": "Bos taurus"}, "[9]": {"system": "BAEC", "experiment": "Inhibition of NO production in BAEC assessed as inhibition of Ca2+ influx at 300 uM", "format": "functional, cell-based", "conditions": "Bos taurus"}, "[10]": {"biological_target": "T1, Short transient receptor potential channel 5 (Homo sapiens)", "experiment": "Induction of S-nitrosylation of TRPC5 in HEK cells assessed as increase in Ca2+ level from extracellular space at 10 uM", "format": "cell-based", "conditions": "HEK293"}, "[11]": {"system": "DT40", "experiment": "Induction of P2Y mediated TRPC5 S-nitrosylation in chicken DT40 cells assessed as increase in Ca2+ level from extracellular space at 100 uM in presence of PLC-beta inhibitor U73122", "format": "cell-based"}}, "note": "Active and inactive are the calls of the source. No cut-off for these calls is given here.", "data": [{"compound": "CC(=O)N[C@@H](CS)C(=O)O", "values": [{"measurement": "inhibition", "setting": "[1]", "result": "Active"}]}, {"compound": "O=C(CCCC[C@@H]1SC[C@@H]2NC(=O)N[C@@H]21)NCCCCCNC(=O)c1cc(SSc2ccc([N+](=O)[O-])c(C(=O)NCCCCCNC(=O)CCCC[C@@H]3SC[C@@H]4NC(=O)N[C@@H]43)c2)ccc1[N+](=O)[O-]", "values": [{"measurement": "Activity", "setting": "[2]", "result": "Active"}]}, {"compound": "CS(=O)(=O)SCCN", "values": [{"measurement": "Activity", "setting": "[3]", "result": "Active"}]}, {"compound": "[NH-]c1c[n+](N2CCOCC2)no1", "values": [{"measurement": "Activity", "setting": "[4]", "result": "Active"}]}, {"compound": "c1cc(SSc2ccncc2)ccn1", "values": [{"measurement": "Activity", "setting": "[5]", "result": "Active"}]}, {"compound": "CC/C(=C\\C(=N\\O)C(N)=O)C(C)[N+](=O)[O-]", "note": "(racemic)", "values": [{"measurement": "Activity", "setting": "[6]", "result": "Active"}]}, {"compound": "O=C1O[C@H]([C@@H](O)CO)C(O)=C1O", "values": [{"measurement": "inhibition", "setting": "[7]", "result": "Active"}]}, {"compound": "COC(=O)[C@@H](N)CCCNC(=N)N[N+](=O)[O-]", "values": [{"measurement": "inhibition", "setting": "[8]", "result": "Active"}, {"measurement": "inhibition", "setting": "[9]", "result": "Active"}]}, {"compound": "C[N+](C)(C)CCSS(C)(=O)=O", "values": [{"measurement": "Activity", "setting": "[3]", "result": "inactive"}]}, {"compound": "O=c1onc2cnc3ccccc3n12", "values": [{"measurement": "Activity", "setting": "[10]", "result": "inactive"}]}, {"compound": "Nc1ncnc2c1ncn2[C@@H]1O[C@H](COP(=O)(O)OP(=O)(O)OP(=O)(O)O)[C@@H](O)[C@H]1O", "values": [{"measurement": "Activity", "setting": "[11]", "result": "inactive"}]}, {"compound": "O=C(O)c1cc(SSc2ccc([N+](=O)[O-])c(C(=O)O)c2)ccc1[N+](=O)[O-]", "values": [{"measurement": "Activity", "setting": "[5]", "result": "Active"}]}]}
